PubChem BioAssay (NCI)
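Interpolation was linear, between the two tested concentrations surrounding the appropriate level; five concentrations were tested over 48 hours in 96-well plates. The concentration for 50% growth inhibition is given as GI50. TGI: concentration producing complete growth inhibition.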

Key:
Assay in all cases: NCI anticancer screen, dose series, 48 h
OVCAR-5 ovarian = tested on: OVCAR-5 ovarian
OVCAR-3 ovarian = tested on: OVCAR-3 ovarian
M14 melanoma = tested on: M14 melanoma
OVCAR-8 ovarian = tested on: OVCAR-8 ovarian
SR leukemia = tested on: SR leukemia
SK-MEL-5 melanoma = tested on: SK-MEL-5 melanoma
A549 NSCLC = tested on: A549 NSCLC
MDA-MB-231 breast = tested on: MDA-MB-231 breast
NCI-H23 lung = tested on: NCI-H23 lung
SK-MEL-28 melanoma = tested on: SK-MEL-28 melanoma

Compound | GI50 (OVCAR-5 ovarian) [µM] | TGI (OVCAR-5 ovarian) [µM] | GI50 (OVCAR-3 ovarian) [µM] | TGI (OVCAR-3 ovarian) [µM] | GI50 (M14 melanoma) [µM] | TGI (M14 melanoma) [µM] | GI50 (OVCAR-8 ovarian) [µM] | TGI (OVCAR-8 ovarian) [µM] | GI50 (SR leukemia) [nM] | TGI (SR leukemia) [µM] | GI50 (SK-MEL-5 melanoma) [µM] | TGI (SK-MEL-5 melanoma) [µM] | GI50 (A549 NSCLC) [µM] | TGI (A549 NSCLC) [µM] | GI50 (MDA-MB-231 breast) [µM] | TGI (MDA-MB-231 breast) [µM] | GI50 (NCI-H23 lung) [µM] | TGI (NCI-H23 lung) [µM] | GI50 (SK-MEL-28 melanoma) [µM] | TGI (SK-MEL-28 melanoma) [µM]
O=C(Nc1ccc(Cl)cc1)c1cccc(NC2=C(Cl)C(=O)N(Cc3ccccc3)C2=O)c1 | 13.4 | 36.6 | 8.04 | 47 | 14.5 | 72.8 | 10 | 21.6 | 3560 | 14.9 | 8.15 | 20.9 | 14.8 | 28 | 4.44 | 17.6 | 4.81 | 41.2 | 25.7 | > 100
CC(=O)[C@@]12O[C@@H]1CC1C3CCC4=CC(O)CCC4(C)C3CCC12C (stereo not given in full) | 27.9 | 88.3 | 78.5 | > 100 | 95.9 | > 100 | 23.3 | 82.3 | > 100000 | > 100 | > 100 | > 100 | 72.7 | > 100 | 12.5 | 26.8 | 55.8 | > 100 | 69.4 | > 100
Cc1cccc(NC(=O)Cn2cnc3sc(C(=O)OC(C)C)c(C)c3c2=O)c1 | – | – | 33.4 | > 50 | > 50 | > 50 | 17.4 | > 50 | > 50000 | > 50 | 20.7 | > 50 | 16.4 | > 50 | 11.2 | 39.5 | – | – | 16.6 | > 50
O=C(/C=C/c1ccc(Cl)cc1)c1ccc(Nc2ccnc3cc(Cl)ccc23)cc1 | 22.1 | 68.5 | 32 | > 100 | 26.8 | > 100 | > 100 | > 100 | 565 | > 100 | – | > 53.8 | > 100 | > 100 | 20.3 | > 58.4 | > 100 | > 100 | 31.9 | > 100
CC(C)(C)OC(=O)N[C@H]1CC2(C=C(Cl)C(=O)C(Cl)=C2)OC1=O | – | 38.6 | – | 28.1 | – | 33.7 | – | 34.5 | – | > 25 | – | 38.5 | – | > 100 | – | 33.8 | – | 33.7 | – | 25
CN1CCN(CCCn2c(=O)c3sc4ncccc4c3n3nnc(-c4ccccc4)c23)CC1 | 8.85 | 16.9 | 2.3 | 7.58 | 2.13 | 7.38 | 7.83 | 15.3 | 1110 | 2.57 | 7.21 | 13.8 | 6.81 | 13.8 | 6.88 | 13.6 | 8.07 | 15.3 | 8.73 | 15.8
